Reference: article PMC6680510, “Benzotriazine Di-Oxide Prodrugs for Exploiting Hypoxia and Low Extracellular pH in Tumors” (Molecules, 2019)
Like-named read-outs stand apart in the source and are kept apart here.

Tests used:
[1] = system: SiHa cells; experiment: IC50 assay (inhibition of proliferation, 4 h exposure, SRB); details: SiHa; for IC50: Homo sapiens, 4 h
Method in brief: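 Cells exposed to compound for 4 h in titrated medium, then washed and regrown 5 days under standard conditions (oxia, pHe 7.4). Growth read by sulforhodamine B staining; IC50 from 4-parameter logistic regression of duplicate cultures.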

[2] = system: FaDu cells; experiment: as above; format: cell-based; details: for IC50: Homo sapiens, 4 h
[3] = system: UT-SCC-74B cells; experiment: as above; format: cell-based; details: UT-SCC-74B, UT-SCC-74B; for IC50: Homo sapiens, 4 h
Procedure: Cells were seeded in 96-well plates (SiHa or FaDu 1500 cells/well, UT-SCC-74B 800 cells/well) in 100 μL. After incubation for 2 h, the drugs were added in 50 μL of the same titrated medium at 3× the final concentration to duplicate the wells. After a further 4 h the plates were checked for drug precipitation using a phase contrast microscope, then drugs were removed by aspirating and washing with the standard (pH 7.4) medium, then aspirating again and adding 150 μL of the medium. Cultures were then grown for 5 days before staining with sulphorhodamine B and measuring absorbance, with the estimation of IC50 values using 4-parameter logistic regression, as previously carried out.
The medium and plasticware was equilibrated in the chamber for 3 days prior to use. In the anoxia experiments, FaDu cells were plated in poly-L-lysine coated plates (Corning Cat # 356461) to improve attachment. […]
Footnotes: a Number of experiments. b Anoxic cytotoxicity ratio = oxic IC50/anoxic IC50. c pH
cytotoxicity ratio = IC50 at pHe 7.4/ IC50 at pHe 6.5. d Overall ratio = oxic IC50 pHe 7.4 / anoxic IC50 pHe
6.5. Values are means and errors are SEM. For ratios, the errors are root mean square SEM. […]

[4] = system: SiHa cells; experiment: IC50 assay modified for chronic hypoxia (oxia, hypoxia, anoxia); format: cell-based; details: for IC50: Homo sapiens
Procedure: There are relatively few viable cells in tumors at O2 concentrations as low as in the above anoxic experiments. In addition, extensive changes in gene expression occur under chronic exposure to intermediate O2 concentrations (chronic hypoxia), including the expression of proteins that regulate pHi. […] Therefore, oxic and anoxic exposures were also tested in these same experiments. The 24 h adaptation to hypoxia had little effect on the subsequent growth of the cultures at either pHe value (Figure S6).
To minimize problems with poor cell attachment under chronic hypoxia, the drugs were added from a 3-fold dilution series made in a separate plate, rather than by serial dilution in the plates containing the cells. In addition, the drugs were removed after the 4 h exposure by centrifuging the plates (200g × 5 min) prior to each aspiration. The same modifications were used for the oxic drug exposures in these experiments.

[5] = system: SiHa and SiHa/POR cells; experiment: IC50 in SiHa versus SiHa/POR cultures under anoxia; format: cell-based; details: 4 h under anoxia, pHe 7.4
Procedure: The lack of effect of POR over-expression on the reductive metabolism of the BTO acids in intact cells led us to compare the cytotoxicities of SN30000 (2), 4a, and 7a in SiHa/POR, and the parental line, under anoxia (Figure 6).
Drug exposure was for 4 h under anoxia, at pHe 7.4, with regrowth under aerobic conditions for 5 days before staining with SRB. Values are means and SEM for the two experiments, each with triplicate cultures at each drug concentration. TEXT PRINTED IN THE PICTURE: Cmpd 2: Ratio 6.75 ± 0.20 | Cmpd 4a: Ratio 3.40 ± 0.22 | Cmpd 7a: Ratio 2.67 ± 0.46

[6] = system: SiHa and FaDu cells; experiment: IC50 assay, summary statements over both cell lines; format: cell-based; details: read-out: Potency (IC50) under anoxia at pHe 6.5
Procedure: Cells were seeded in 96-well plates (SiHa or FaDu 1500 cells/well, UT-SCC-74B 800 cells/well) in 100 μL. After incubation for 2 h, the drugs were added in 50 μL of the same titrated medium at 3× the final concentration to duplicate the wells. After a further 4 h the plates were checked for drug precipitation using a phase contrast microscope, then drugs were removed by aspirating and washing with the standard (pH 7.4) medium, then aspirating again and adding 150 μL of the medium. Cultures were then grown for 5 days before staining with sulphorhodamine B and measuring absorbance, with the estimation of IC50 values using 4-parameter logistic regression, as previously carried out [85].

[7] = pulse radiolysis, redox indicator MV^2+; cited from earlier work
[8] = set-up: method as in PMID 24737463; details: cited from earlier work
[9] = system: MDCK-II cells with forced expression of BCRP or Pgp; experiment: IC50 under anoxia in cells with forced expression of efflux transporters; details: MDCK-II cell lines under anoxia, preliminary experiments
Procedure: expression of BCRP or Pgp.
Cells were seeded at 300 cells/well in DMEM with 10% FBS in 96 well plates in an
anaerobic chamber, allowed to attach for 2 h then exposed to drugs for 4 h under anoxia. Cells were
then washed with fresh medium and grown for 5 days under aerobic conditions before staining with
SRB. Values are mean ± SEM from 2 separate experiments.

[10] = system: SiHa cells; experiment: Cellular uptake in stirred aerobic single cell suspensions (HPLC, 3H-mannitol correction)
[11] = set-up: method as in PMID 28848445; details: cited from earlier work

## [O-][n+]1nc(CCCN2CCOCC2)[n+]([O-])c2cc3c(cc21)CCC3 [Compound 2, SN30000, reference compound]
[1]; read-out: Anoxic IC50, SiHa, pHe 6.5, 4 h, anoxic
  IC50: 5.52 ± 2.01 µM
[1]; read-out: Anoxic IC50, SiHa, pHe 7.4, 4 h, anoxic
  IC50: 2.87 ± 0.23 µM
[1]; read-out: Oxic IC50, SiHa, pHe 6.5, 4 h, oxic
  IC50: 253 ± 31 µM
[1]; read-out: Oxic IC50, SiHa, pHe 7.4, 4 h, oxic
  IC50: 292 ± 15 µM
[1]
  TMR (overall TME ratio = oxic IC50 pHe 7.4/anoxic IC50 pHe 6.5): 53 ± 19
[1]; anoxic
  PCR Anoxic (IC50 at pHe 7.4/IC50 at pHe 6.5): 0.52 ± 0.19
[1]; oxic
  PCR oxic (IC50 at pHe 7.4/IC50 at pHe 6.5): 1.15 ± 0.15
[1]; pHe 6.5
  ACR (anoxic cytotoxicity ratio = oxic IC50/anoxic IC50): 46 ± 18.0
[1]; pHe 7.4
  ACR (anoxic cytotoxicity ratio = oxic IC50/anoxic IC50): 101 ± 10
[1]; representative experiment (Figure 3), oxia and anoxia
  PCR (pH cytotoxicity ratio): little or no dependence on pHe
[1]; representative experiment (Figure 3), pHe 7.4 and 6.5
  ACR (anoxia cytotoxicity ratio): approximately 140
[2]
  TMR (oxic IC50 pHe 7.4/anoxic IC50 pHe 6.5): 29.8 ± 5.7
[2]; pHe 6.5, 4 h, anoxic, read-out: Anoxic IC50
  IC50: 8.63 ± 1.55 µM
[2]; pHe 6.5, 4 h, oxic, read-out: Oxic IC50
  IC50: 277 ± 15 µM
[2]; pHe 7.4, 4 h, anoxic, read-out: Anoxic IC50
  IC50: 4.16 ± 0.35 µM
[2]; pHe 7.4, 4 h, oxic, read-out: Oxic IC50
  IC50: 258 ± 15 µM
[2]; anoxic
  PCR Anoxic (IC50 at pHe 7.4/IC50 at pHe 6.5): 0.48 ± 0.10
[2]; oxic
  PCR oxic (IC50 at pHe 7.4/IC50 at pHe 6.5): 0.93 ± 0.08
[2]; pHe 6.5
  ACR (oxic IC50/anoxic IC50): 32.1 ± 6.04
[2]; pHe 7.4
  ACR (oxic IC50/anoxic IC50): 62.0 ± 6.34
[3]; pHe 6.5, 4 h, 20% O2, read-out: Oxic IC50
  IC50: 190 ± 42 µM
[3]; pHe 6.5, 4 h, <0.01% O2, read-out: Anoxic IC50
  IC50: 6.29 ± 1.79 µM
[3]; pHe 7.4, 4 h, 20% O2, read-out: Oxic IC50
  IC50: 477 ± 65 µM
[3]; pHe 7.4, 4 h, <0.01% O2, read-out: Anoxic IC50
  IC50: 5.92 ± 2.42 µM
[3]
  TME ratio (oxic IC50 pHe 7.4/anoxic IC50 pHe 6.5): 75.8 ± 23.9
[3]; anoxic
  PCR Anoxic (IC50 at pHe 7.4/IC50 at pHe 6.5): 0.94± 0.47
[3]; oxic
  PCR oxic (IC50 at pHe 7.4/IC50 at pHe 6.5): 2.51 ± 0.65
[3]; pHe 6.5
  ACR (oxic IC50/anoxic IC50): 30.2 ± 10.9
[3]; pHe 7.4
  ACR (oxic IC50/anoxic IC50): 80.6 ± 34.7
[4]; 0.2% O2
  PCR (IC50 for pHe 7.4/IC50 for pHe 6.5): 1.76 ± 0.43
[4]; 0.2% O2, both pHe values
  HCR: approximately 20
[4]; 20% O2
  PCR (IC50 for pHe 7.4/IC50 for pHe 6.5): 1.95 ± 0.66
[4]; <0.01% O2
  PCR (IC50 for pHe 7.4/IC50 for pHe 6.5): 0.84 ± 0.15
[4]; 0.2% O2 (24 h before and during 4 h exposure), pHe 6.5
  IC50: 9.88 ± 2.34 µM
[4]; 0.2% O2 (24 h before and during 4 h exposure), pHe 7.4
  IC50: 17.4 ± 1.02 µM
[4]; 4 h, 20% O2, pHe 6.5, 4 h
  IC50: 207 ± 69 µM
[4]; 4 h, 20% O2, pHe 7.4, 4 h
  IC50: 404 ± 21 µM
[4]; 4 h, <0.01% O2, pHe 6.5, 4 h
  IC50: 3.07 ± 0.38 µM
[4]; 4 h, <0.01% O2, pHe 7.4, 4 h
  IC50: 2.59 ± 0.35 µM
[4]; pHe 6.5
  ACR (IC50 for 20% O2/IC50 for <0.01% O2): 67 ± 24
  HCR (IC50 for 20% O2/IC50 for 0.2% O2): 20.1 ± 8.6
[4]; pHe 7.4
  ACR (IC50 for 20% O2/IC50 for <0.01% O2): 156 ± 23
  HCR (IC50 for 20% O2/IC50 for 0.2% O2): 23.2 ± 1.8
[5]
  IC50 ratio SiHa / SiHa/POR (fold lower IC50 in POR cell line): 6.75 ± 0.20
[5]; listed as SN30000
  IC50 ratio SiHa / SiHa/POR (fold lower IC50 in POR cell line): 6.75
[6]
  IC50: 2.9 to 8.6 µM
[7]
  E^0′ one-electron reduction potential: −401 ± 8 [MV^2+] ^g mV
[8]
  pKa of the radical anion: 5.48 ± 0.26
[9]
  Effect of overexpression of BCRP or Pgp efflux transporters on sensitivity: no effect
[10]; SiHa cell suspensions, data not shown
  Uptake (Ci/Ce) at 4 °C relative to 37 °C: minor increase
[10]; aerobic SiHa suspensions, 5 min
  Ci ratio (Ci at pHe 6.5/Ci at pHe 7.4): 1.09 ± 0.09 fold
[10]; aerobic SiHa suspensions, 60 min
  Ci ratio (Ci at pHe 6.5/Ci at pHe 7.4): 0.95 ± 0.07 fold
[10]; aerobic SiHa suspensions, pHe 6.5, 5 min
  Ci/Ce, pHe 6.5 Obs 5 min: 2.75 ± 0.07
[10]; aerobic SiHa suspensions, pHe 6.5, 60 min
  Ci/Ce, pHe 6.5 Obs 60 min: 2.37 ± 0.02
[10]; aerobic SiHa suspensions, pHe 7.4, 5 min
  Ci/Ce, pHe 7.4 Obs 5 min: 2.48± 0.27
[10]; aerobic SiHa suspensions, pHe 7.4, 60 min
  Ci/Ce, pHe 7.4 Obs 60 min: 2.49 ± 0.05

## O=C(O)CCc1nc2cc3c(cc2[n+]([O-])n1)CCC3 [Compound 15d, 3-(2-Carboxyethyl)-7,8-dihydro-6H-indeno[5,6-e][1,2,4]triazine 1-Oxide]
[11]
  Protein bound in mouse plasma: > 90%
